The target in the test is T1, E. faecium PolC^F1276S (exonuclease-inactivated) (Enterococcus faecium, UniProt A0A9X4B319, D429A/E431A/F1274S).
T1 sequence (A0A9X4B319 1-1450 D429A/E431A/F1274S): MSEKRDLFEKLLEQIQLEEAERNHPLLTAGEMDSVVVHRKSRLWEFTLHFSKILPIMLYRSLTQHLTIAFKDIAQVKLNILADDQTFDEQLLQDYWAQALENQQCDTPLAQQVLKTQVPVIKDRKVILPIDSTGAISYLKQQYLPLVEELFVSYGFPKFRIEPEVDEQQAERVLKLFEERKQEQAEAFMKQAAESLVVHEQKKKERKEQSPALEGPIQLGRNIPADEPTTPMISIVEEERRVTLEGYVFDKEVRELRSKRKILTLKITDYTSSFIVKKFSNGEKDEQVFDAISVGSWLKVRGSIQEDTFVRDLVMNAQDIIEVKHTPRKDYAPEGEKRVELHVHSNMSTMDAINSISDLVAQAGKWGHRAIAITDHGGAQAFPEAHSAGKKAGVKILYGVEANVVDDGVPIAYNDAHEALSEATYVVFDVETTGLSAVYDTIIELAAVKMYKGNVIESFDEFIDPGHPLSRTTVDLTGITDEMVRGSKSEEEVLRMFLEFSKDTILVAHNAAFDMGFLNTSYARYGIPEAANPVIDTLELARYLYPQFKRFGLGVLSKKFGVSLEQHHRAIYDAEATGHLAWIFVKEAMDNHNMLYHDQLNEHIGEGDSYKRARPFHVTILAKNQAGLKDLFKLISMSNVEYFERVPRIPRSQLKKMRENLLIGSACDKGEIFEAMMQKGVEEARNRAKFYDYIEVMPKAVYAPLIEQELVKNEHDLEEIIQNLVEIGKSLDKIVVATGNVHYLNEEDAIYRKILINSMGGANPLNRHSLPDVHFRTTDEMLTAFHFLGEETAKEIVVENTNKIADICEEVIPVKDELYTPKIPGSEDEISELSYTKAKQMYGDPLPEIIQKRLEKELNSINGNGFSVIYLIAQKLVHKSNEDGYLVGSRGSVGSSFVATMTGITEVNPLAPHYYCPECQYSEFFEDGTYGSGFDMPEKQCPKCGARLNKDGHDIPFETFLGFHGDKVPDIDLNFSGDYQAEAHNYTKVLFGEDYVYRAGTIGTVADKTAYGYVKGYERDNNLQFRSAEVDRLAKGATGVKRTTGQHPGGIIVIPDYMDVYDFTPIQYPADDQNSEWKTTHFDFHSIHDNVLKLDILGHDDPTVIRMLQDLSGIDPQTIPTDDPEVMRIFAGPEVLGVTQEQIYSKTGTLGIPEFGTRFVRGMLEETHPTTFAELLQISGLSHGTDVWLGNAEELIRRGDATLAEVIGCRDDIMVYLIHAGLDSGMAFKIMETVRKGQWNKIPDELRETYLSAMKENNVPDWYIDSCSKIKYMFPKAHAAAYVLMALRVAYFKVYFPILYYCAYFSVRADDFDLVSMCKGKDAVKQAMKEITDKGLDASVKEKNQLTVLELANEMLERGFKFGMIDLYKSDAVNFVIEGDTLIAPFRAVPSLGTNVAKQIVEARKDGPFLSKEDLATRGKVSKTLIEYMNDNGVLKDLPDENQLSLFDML
Description: Real-time DNA primer extension assay. It is filed as biochemical. The following applies: for rate of activity (slope of fluorescence intensity change over time): Fig. 4b source data, F1267S. The source says:
The genes for PolC (locus_tag: MIBBHLJO_01574) and DnaE (locus_tag: MIBBHLJO_00911) from E. faecium ATCC 700221 were codon-optimized for expression in E. coli and synthesized in vector pET28b by Twist Bioscience (San Francisco, CA). Expression constructs for variant PolC proteins were created with QuikChange Site-Directed Mutagenesis (Agilent) with oligonucleotides listed in Supplementary Table 3. F1276L, F1276S, and A1281T were introduced to assess the effect of these mutations on inhibition by ACX compounds. Mutations D972A and D974A were introduced to inactivate the polymerase activity and mutations D431A and E433A were introduced to inactivate the exonuclease activity (Fig. 1d, Supplementary Fig. 1).
Polymerase activity was monitored in real-time[31],[32] with a 42-nt long 5’ carboxyfluorescein-labelled DNA oligonucleotide template strand (DNASP8_42) annealed to a 30-nt primer oligonucleotide (oMU014). Polymerase activity in this assay is monitored by measuring fluorescence quenching of the labelled DNA template as a result of primer extension by PolC (for details see Supplementary Fig. 1b, c). Both primers were HPLC purified. Primer extension assays were performed in Reaction Buffer (see Gel-based polymerase and exonuclease assays) supplemented with 0.5 mg/mL BSA, 0.05% Tween20 and 25 uM of each dNTP (SRB) in 384-well Black Round Bottom plates (Corning 4514). The polymerase was diluted in the SRB and incubated for at least 5 min in the presence of inhibitor or solvent, with a final solvent concentration of 1%. The reaction was initiated by the addition of an equal volume of DNA substrate in SRB as described below. Fluorescence emission data was collected with a BMG Labtech PHERAstar FSX reader for 30 min at room temperature.
Compounds were dispensed with an Echo acoustic liquid handler (Beckman Coulter). All compounds were dissolved to 1 mM and 10 mM stocks in 100% DMSO and transferred to Echo LDV or PP source plates (Labcyte, Inc., CA), then dispensed to 384-well plates with a Labcyte Echo550 or Echo650 acoustic dispenser at volumes of 2.5 to 100 nL per well. […] A Mantis microfluidic liquid dispenser (Formulatrix) was used to dispense 5 µL polymerase and 5 µL substrate DNA (individually diluted in SRB) per well. […] The final concentration of DNA was 70 nM.
Data were analysed and standard error of the means (SEM) determined in Prism 8.4.2 and 10.2.3 (GraphPad). Raw time-course polymerase activity was plotted against time, with SEM of triplicates determined. The rate of activity (represented by signal quenching) was determined during the first 8 min (linear stage) by calculating the slope of fluorescence intensity change (converted to a positive value) over time (in seconds). The slopes were then normalized to percentage activity (%); per ‘replicate range’, 100% activity was defined as polymerase activity in the absence of inhibitor (polymerase control), and 0% activity was determined in the absence of polymerase (DNA signal; negative control). The SEM was determined between ‘replicate ranges’. The IC50 was determined using the dose-response (inhibition) nonlinear regression ‘[Inhibitor] vs. response (three parameters)’ without constraints.

Data on two compounds can be found in paper PMC12592400, “A unique inhibitor conformation selectively targets the DNA polymerase PolC of Gram-positive priority pathogens” (Nature Communications, 2025).

Values joined by “and” are separate entries in the source; they are usually repeats but may differ in a detail not shown here. Identical values can stand only once.

Take `O=c1[nH]c(NCc2ccc(Cl)c(Cl)c2)nc2ncn(CCN3CCOCC3)c12` [IBZ, N^2-(3,4-dichlorobenzyl)-7-(2-[1-morpholinyl]ethyl)guanine]: the IC50 was above 225 µM. For the same compound, where the note is “inhibitor 1 uM”, the “rate of activity (slope of fluorescence intensity change over time)” value is 29.0 and 29.8 and 31.7. For the same compound, where the note is “inhibitor 1.75 uM”, the “rate of activity (slope of fluorescence intensity change over time)” value is 30.0 and 28.9 and 29.5. The “rate of activity (slope of fluorescence intensity change over time)” value (inhibitor 2.5 uM) is 26.9 and 26.5 and 27.3. The “rate of activity (slope of fluorescence intensity change over time)” value (inhibitor 4 uM) is 31.2 and 29.8 and 29.5. Moreover, the “rate of activity (slope of fluorescence intensity change over time)” value (inhibitor 5.75 uM) amounted to 28.2. Besides, under “inhibitor 8.8 uM”, the “rate of activity (slope of fluorescence intensity change over time)” value is 25.6 and 30.1 and 32.4. Moreover, where the note is “inhibitor 20 uM”, the “rate of activity (slope of fluorescence intensity change over time)” value is 30.9 and 27.1 and 31.2. Besides, under “inhibitor 30 uM”, the “rate of activity (slope of fluorescence intensity change over time)” value is 29.0 and 27.4. Further, under “inhibitor 45 uM”, the “rate of activity (slope of fluorescence intensity change over time)” value is 31.6 and 29.8 and 28.0. In addition, the “rate of activity (slope of fluorescence intensity change over time)” value (inhibitor 67.5 uM) is 29.0 and 32.1 and 30.5. For the same compound, the “rate of activity (slope of fluorescence intensity change over time)” value (inhibitor 100 uM) is 28.6 and 28.2. Besides, the “rate of activity (slope of fluorescence intensity change over time)” value (inhibitor 150 uM) is 27.2 and 24.9 and 25.9. For the same compound, the “rate of activity (slope of fluorescence intensity change over time)” value (inhibitor 225 uM) is 28.0 and 22.8.

As for `O=c1[nH]c(NCc2ccc3c(c2)OC(F)(F)O3)nc2c(F)nn(CCO)c12` [ACX-801, 5-(((2,2-difluorobenzo[d][1,3]dioxol-5-yl)methyl)amino)-3-fluoro-1-(2-hydroxyethyl)-1,6-dihydro-7H-pyrazolo[4,3-d]pyrimidin-7-one], 101 ± 8.8 µM corresponded to half-maximal inhibition (IC50). For the same compound, where the note is “inhibitor 1 uM”, the “rate of activity (slope of fluorescence intensity change over time)” value was 29.5 and 29.8 and 30.7. Besides, the “rate of activity (slope of fluorescence intensity change over time)” value (inhibitor 1.75 uM) was 30.8 and 30.2 and 30.4. For the setting “inhibitor 2.5 uM”, the “rate of activity (slope of fluorescence intensity change over time)” value was 31.6 and 32.7 and 27.4. The “rate of activity (slope of fluorescence intensity change over time)” value (inhibitor 4 uM) is 31.4 and 30.5 and 33.1. Moreover, the “rate of activity (slope of fluorescence intensity change over time)” value (inhibitor 5.75 uM) is 30.4 and 30.7 and 31.4. Also, the “rate of activity (slope of fluorescence intensity change over time)” value (inhibitor 8.8 uM) was 31.4 and 31.3 and 30.8. In addition, the “rate of activity (slope of fluorescence intensity change over time)” value (inhibitor 20 uM) is 28.6 and 27.8. Also, the “rate of activity (slope of fluorescence intensity change over time)” value (inhibitor 30 uM) is 22.8 and 24.4 and 24.1. Also, the “rate of activity (slope of fluorescence intensity change over time)” value (inhibitor 45 uM) is 18.0 and 19.1. Besides, the “rate of activity (slope of fluorescence intensity change over time)” value (inhibitor 67.5 uM) was 14.6 and 12.2. Also, the “rate of activity (slope of fluorescence intensity change over time)” value (inhibitor 100 uM) is 10.5 and 12.0 and 13.4. For the same compound, the “rate of activity (slope of fluorescence intensity change over time)” value (inhibitor 225 uM) is 6.1 and 6.2 and 5.0.

In general, IC50 refers to the midpoint of a concentration-inhibition curve.
